From paper PMC9268515, “UGT1A1 and UGT1A9 Are Responsible for Phase II Metabolism of Tectorigenin and Irigenin In Vitro” (Molecules, 2022)

Tests used:
Type in all cases: in vitro ADME
UGT1A1 = target: T1, UGT1A1 (Homo sapiens, UniProt P22309); test: Recombinant UGT reaction screening and enzyme kinetics, UGT1A1; settings: recombinant UGT1A1 screening
T1 construct: purchased BD Biosciences (Woburn, MA, USA)
T1 sequence (P22309 26-533): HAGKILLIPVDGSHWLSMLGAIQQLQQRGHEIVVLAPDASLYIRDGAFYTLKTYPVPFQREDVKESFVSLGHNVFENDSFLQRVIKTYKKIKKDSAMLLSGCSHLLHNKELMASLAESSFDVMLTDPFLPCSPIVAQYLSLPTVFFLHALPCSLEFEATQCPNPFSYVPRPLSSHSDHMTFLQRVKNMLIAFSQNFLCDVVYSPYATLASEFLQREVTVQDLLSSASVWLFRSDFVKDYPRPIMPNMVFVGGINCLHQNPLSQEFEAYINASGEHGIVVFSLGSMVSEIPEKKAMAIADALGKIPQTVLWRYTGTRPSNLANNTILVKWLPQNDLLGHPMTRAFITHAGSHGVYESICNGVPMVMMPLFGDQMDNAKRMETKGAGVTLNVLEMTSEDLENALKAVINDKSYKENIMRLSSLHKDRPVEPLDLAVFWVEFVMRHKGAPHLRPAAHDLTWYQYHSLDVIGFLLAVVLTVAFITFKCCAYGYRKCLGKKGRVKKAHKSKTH
Description: (§1) UGT reaction screening of tectorigenin and irigenin was conducted using nine commercially available human UGTs (UGT1A1/1A3/1A4/1A6/1A9/2B4/2B7/2B15/2B17). Furthermore, we studied the enzymatic kinetic characteristics of tectorigenin and irigenin using UGT1A1 and UGT1A9. Six concentrations of tectorigenin and irigenin (1, 3, 10, 30, 100, and 300 μM) were incubated in triplicate in order to obtain the enzyme kinetic characteristics of tectorigenin and irigenin glucuronide.
For both HLMs and UGTs, metabolic kinetic analysis was performed by fitting the data to the Michaelis-Menten model. The Km and Vmax of enzymes were calculated as follows:(3) V=Vmax×[S]/Km+[S], where [S] is the substrate concentration. All results were shown as the mean ± standard error (SE). Differences among different groups were compared using one-way analysis of variance. A p-value < 0.05 was considered statistically significant.

UGT1A3 = target: T2, UGT1A3 (Homo sapiens, UniProt P35503); test: Recombinant UGT reaction screening, UGT1A3
T2 construct: purchased BD Biosciences (Woburn, MA, USA)
T2 sequence (P35503 29-534): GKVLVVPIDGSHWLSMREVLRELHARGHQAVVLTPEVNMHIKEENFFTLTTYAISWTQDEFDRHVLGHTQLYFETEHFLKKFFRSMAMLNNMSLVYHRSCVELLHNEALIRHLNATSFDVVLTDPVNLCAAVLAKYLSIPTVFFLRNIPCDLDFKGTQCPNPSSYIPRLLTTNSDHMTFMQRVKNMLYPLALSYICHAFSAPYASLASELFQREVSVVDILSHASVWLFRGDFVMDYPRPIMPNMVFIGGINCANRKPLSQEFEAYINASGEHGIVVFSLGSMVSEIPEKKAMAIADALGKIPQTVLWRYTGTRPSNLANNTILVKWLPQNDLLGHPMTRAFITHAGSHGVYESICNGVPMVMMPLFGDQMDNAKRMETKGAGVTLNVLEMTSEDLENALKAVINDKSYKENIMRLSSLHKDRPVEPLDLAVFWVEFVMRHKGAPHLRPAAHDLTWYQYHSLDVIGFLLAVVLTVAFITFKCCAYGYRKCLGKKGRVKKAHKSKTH
Description: as §1

UGT1A6 = target: T3, UGT1A6 (Homo sapiens, UniProt P19224); test: Recombinant UGT reaction screening, UGT1A6
T3 construct: purchased BD Biosciences (Woburn, MA, USA)
T3 sequence (P19224 27-532): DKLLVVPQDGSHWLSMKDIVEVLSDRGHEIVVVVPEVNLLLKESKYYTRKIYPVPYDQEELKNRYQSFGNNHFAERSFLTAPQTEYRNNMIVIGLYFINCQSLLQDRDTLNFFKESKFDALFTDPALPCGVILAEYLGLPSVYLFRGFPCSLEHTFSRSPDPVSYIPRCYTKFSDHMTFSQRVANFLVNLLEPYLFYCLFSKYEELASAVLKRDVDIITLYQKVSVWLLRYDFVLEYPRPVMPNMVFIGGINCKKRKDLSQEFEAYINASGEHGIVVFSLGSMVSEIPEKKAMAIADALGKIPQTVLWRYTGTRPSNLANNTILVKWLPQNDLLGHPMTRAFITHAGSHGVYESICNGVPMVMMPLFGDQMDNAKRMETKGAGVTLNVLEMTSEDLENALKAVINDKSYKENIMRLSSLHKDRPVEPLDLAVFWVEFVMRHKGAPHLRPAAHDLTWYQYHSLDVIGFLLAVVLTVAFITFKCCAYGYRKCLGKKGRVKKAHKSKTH
Description: as §1

UGT2B7 = target: T4, UGT2B7 (Homo sapiens, UniProt P16662); test: Recombinant UGT reaction screening, UGT2B7
T4 construct: purchased BD Biosciences (Woburn, MA, USA)
T4 sequence (P16662 24-529): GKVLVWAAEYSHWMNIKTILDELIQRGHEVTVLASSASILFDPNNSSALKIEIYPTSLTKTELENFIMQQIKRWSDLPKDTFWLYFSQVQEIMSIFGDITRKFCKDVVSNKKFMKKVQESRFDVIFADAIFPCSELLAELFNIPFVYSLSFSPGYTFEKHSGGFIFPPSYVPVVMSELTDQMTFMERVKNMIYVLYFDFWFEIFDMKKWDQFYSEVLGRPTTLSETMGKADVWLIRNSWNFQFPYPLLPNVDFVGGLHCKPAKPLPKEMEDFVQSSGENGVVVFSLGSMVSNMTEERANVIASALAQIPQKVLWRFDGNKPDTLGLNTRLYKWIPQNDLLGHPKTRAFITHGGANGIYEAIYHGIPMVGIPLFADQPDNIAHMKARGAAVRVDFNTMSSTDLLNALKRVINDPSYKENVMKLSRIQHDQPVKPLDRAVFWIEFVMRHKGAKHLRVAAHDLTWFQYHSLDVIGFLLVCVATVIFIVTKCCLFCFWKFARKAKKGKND
Description: as §1

UGT2B17 = target: T5, UGT2B17 (Homo sapiens, UniProt O75795); test: Recombinant UGT reaction screening, UGT2B17
T5 construct: purchased BD Biosciences (Woburn, MA, USA)
T5 sequence (O75795 24-530): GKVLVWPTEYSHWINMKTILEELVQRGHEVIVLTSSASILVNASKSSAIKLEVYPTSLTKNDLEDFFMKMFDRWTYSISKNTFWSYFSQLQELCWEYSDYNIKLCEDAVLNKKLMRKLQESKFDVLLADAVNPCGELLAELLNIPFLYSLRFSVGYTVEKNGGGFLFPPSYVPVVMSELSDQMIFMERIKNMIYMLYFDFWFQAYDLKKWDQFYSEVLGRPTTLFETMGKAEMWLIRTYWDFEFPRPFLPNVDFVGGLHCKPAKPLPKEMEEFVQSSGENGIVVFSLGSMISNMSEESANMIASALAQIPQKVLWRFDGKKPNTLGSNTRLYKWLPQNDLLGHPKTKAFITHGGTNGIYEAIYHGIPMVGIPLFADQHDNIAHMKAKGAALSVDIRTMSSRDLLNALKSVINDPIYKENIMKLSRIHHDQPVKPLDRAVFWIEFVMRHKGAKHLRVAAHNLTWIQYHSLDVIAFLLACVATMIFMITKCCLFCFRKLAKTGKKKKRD
Description: as §1

- Activity in glucuronidation of tectorigenin (UGT1A1): highest activity
- Activity in glucuronidation of tectorigenin (UGT1A3): some activity
- Activity in glucuronidation of tectorigenin (UGT1A6): some activity
- Activity in glucuronidation of tectorigenin (UGT2B7): some activity
- Activity in glucuronidation of tectorigenin (UGT2B17): none
Compound: COc1c(O)cc2occ(-c3ccc(O)cc3)c(=O)c2c1O [Tectorigenin, 5,7,4′-trihydroxyl-6-methoxyl isoflavone]
